# Data reported in patent US11485742B2, “2-azaspiro[3.4]octane derivatives as M4 agonists” (NOVARTIS AG, priority 2019, dated 2022).
# Where a name gives a salt, the structure may show the parent alone.
# Columns and labels:
# [1] = target: T1, human cloned CHRM5 receptor (Homo sapiens, UniProt P08912); assay: CHRM5 Ca++ Flux Assay (M5_CHO cells, agonist mode); format: cell-based; settings: for Emax: Percent Activity (PA) measured to EC100 of Carbachol, read-out: M5 FDSS PA %; for EC50: agonist mode, geometric mean if tested more than once, read-out: M5 FDSS EC50
# T1 construct: expressed in transfected cells; host or cells: CHO (M5_CHO)
# T1 sequence (P08912 1-532): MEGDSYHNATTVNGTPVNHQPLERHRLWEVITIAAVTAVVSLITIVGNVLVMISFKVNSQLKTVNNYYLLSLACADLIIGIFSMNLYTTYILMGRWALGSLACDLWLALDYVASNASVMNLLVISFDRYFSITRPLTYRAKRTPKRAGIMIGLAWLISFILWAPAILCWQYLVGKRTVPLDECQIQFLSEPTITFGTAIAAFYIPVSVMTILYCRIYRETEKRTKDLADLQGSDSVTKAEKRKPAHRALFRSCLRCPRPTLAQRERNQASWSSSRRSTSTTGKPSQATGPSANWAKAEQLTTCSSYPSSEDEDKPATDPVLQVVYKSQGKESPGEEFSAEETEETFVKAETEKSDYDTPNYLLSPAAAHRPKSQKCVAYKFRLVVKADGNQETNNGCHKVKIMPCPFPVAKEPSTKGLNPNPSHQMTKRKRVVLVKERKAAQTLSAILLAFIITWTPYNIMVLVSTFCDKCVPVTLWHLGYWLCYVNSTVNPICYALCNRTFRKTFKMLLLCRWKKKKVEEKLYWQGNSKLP
# Summary of the method: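 CHO-K1 cells stably expressing human M3 or M5 receptor, dye-loaded ≥1 h, treated with 11-point compound doses in triplicate; Ca++ flux read over 3 min (FDSS). Agonist-mode four-parameter fit; percent activity relative to carbachol EC100; repeat tests reported as geometric mean.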
# [2] = target: T2, human cloned CHRM2 receptor (Homo sapiens, UniProt P08172); assay: CHRM2 Ca++ Flux Assay (M2_CHO cells, agonist mode); format: cell-based; settings: M2 CHO cells; for EC50: agonist mode, geometric mean if tested more than once, read-out: M2 FDSS EC50; for Emax: Percent Activity (PA) measured to EC100 of Carbachol, read-out: M2 FDSS PA %
# T2 construct: expressed in transfected cells; host or cells: CHO-K1 (M2_CHO)
# T2 sequence (P08172 1-466): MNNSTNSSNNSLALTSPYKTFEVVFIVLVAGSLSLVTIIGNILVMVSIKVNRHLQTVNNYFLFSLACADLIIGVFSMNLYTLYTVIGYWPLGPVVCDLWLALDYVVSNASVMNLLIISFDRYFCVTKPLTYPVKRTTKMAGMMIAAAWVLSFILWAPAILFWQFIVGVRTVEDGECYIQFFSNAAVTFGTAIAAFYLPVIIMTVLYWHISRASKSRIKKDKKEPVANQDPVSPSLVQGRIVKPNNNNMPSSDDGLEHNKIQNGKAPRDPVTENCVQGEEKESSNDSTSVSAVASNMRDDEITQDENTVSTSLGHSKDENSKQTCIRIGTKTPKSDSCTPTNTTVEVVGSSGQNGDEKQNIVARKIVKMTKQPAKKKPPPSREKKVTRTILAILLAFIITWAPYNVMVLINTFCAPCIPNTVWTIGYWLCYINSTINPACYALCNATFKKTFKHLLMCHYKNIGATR
# Summary of the method: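 CHO-K1 cells stably expressing human CHRM2 were plated overnight at 12K cells/well and loaded with Ca++ dye for 1–2 h. They were then held 60 minutes in HBSS −Ca/−Mg, 20 mM HEPES, 2.5 mM probenecid, 20 μM ATP. Agonist-mode Ca++ flux was read over 3 minutes. Four-parameter fits of triplicates gave percent activity relative to carbachol EC100.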
Compound,Emax [1],EC50 [1],EC50 [2],Emax [2]
"Fc1ccc(C2CCN([C@@H]3COC4(C3)CN(c3ncco3)C4)CC2)c(OC2COC2)c1 [Example 4S, (S)-7-(4-(4-fluoro-2-(oxetan-3-yloxy)phenyl)piperidin-1-yl)-2-(oxazol-2-yl)-5-oxa-2-azaspiro[3.4]octane]",0%,> 25 µM,> 25 µM,31%
"c1ccc(C2CCN([C@@H]3COC4(C3)CN(c3ncco3)C4)CC2)c(C2CCOCC2)c1 [Example 4V, (S)-2-(oxazol-2-yl)-7-(4-(2-(tetrahydro-2H-pyran-4-yl)phenyl)piperidin-1-yl)-5-oxa-2-azaspiro[3.4]octane]",0%,> 25 µM,10.7 µM,14%
"Fc1ccc(C2CCOCC2)c(C2CCN([C@@H]3COC4(C3)CN(c3ncco3)C4)CC2)c1 [Example 4W, (S)-7-(4-(5-fluoro-2-(tetrahydro-2H-pyran-4-yl)phenyl)piperidin-1-yl)-2-(oxazol-2-yl)-5-oxa-2-azaspiro[3.4]octane]",0%,> 25 µM,5.16 µM,21%
"COc1ccc(Cl)cc1C1CCN([C@@H]2COC3(C2)CN(c2ncns2)C3)CC1 [Example 5A, (S)-7-(4-(5-chloro-2-methoxyphenyl)piperidin-1-yl)-2-(1,2,4-thiadiazol-5-yl)-5-oxa-2-azaspiro[3.4]octane]",0%,> 25 µM,> 25 µM,26%
"COc1ccccc1C1CCN([C@@H]2COC3(C2)CN(c2ncns2)C3)CC1 [Example 5B, (S)-7-(4-(2-methoxyphenyl)piperidin-1-yl)-2-(1,2,4-thiadiazol-5-yl)-5-oxa-2-azaspiro[3.4]octane]",0%,> 25 µM,> 25 µM,0%
"CC(C)(O)COc1ccc(F)cc1C1CCN([C@@H]2COC3(C2)CN(c2ncns2)C3)CC1 [Example 5C, (S)-1-(2-(1-(2-(1,2,4-thiadiazol-5-yl)-5-oxa-2-azaspiro[3.4]octan-7-yl)piperidin-4-yl)-4-fluorophenoxy)-2-methylpropan-2-ol]",4%,> 25 µM,> 25 µM,0%
"COCCOc1ccc(F)cc1C1CCN([C@@H]2COC3(C2)CN(c2ncns2)C3)CC1 [Example 5D, (S)-7-(4-(5-fluoro-2-(2-methoxyethoxy)phenyl)piperidin-1-yl)-2-(1,2,4-thiadiazol-5-yl)-5-oxa-2-azaspiro[3.4]octane]",0%,> 25 µM,> 25 µM,0%
"COc1cc(F)ccc1C1CCN([C@@H]2COC3(C2)CN(c2ncns2)C3)CC1 [Example 5E, (S)-7-(4-(4-fluoro-2-methoxyphenyl)piperidin-1-yl)-2-(1,2,4-thiadiazol-5-yl)-5-oxa-2-azaspiro[3.4]octane]",0%,13 µM,> 25 µM,0%
"COC(C)(C)CCOc1ccc(F)cc1C1CCN([C@@H]2COC3(C2)CN(c2nncs2)C3)CC1 [Example 5N, (S)-7-(4-(5-fluoro-2-(3-methoxy-3-methylbutoxy)phenyl)piperidin-1-yl)-2-(1,3,4-thiadiazol-2-yl)-5-oxa-2-azaspiro[3.4]octane]",21%,12.4 µM,> 25 µM,38%

# Results, then the compound that gave them:
Emax [1],EC50 [1],EC50 [2],Emax [2],Compound
35%,2.53 µM,0.073 µM,51%,"Cc1nc(COc2ccccc2C2CCN([C@@H]3COC4(C3)CN(c3nncs3)C4)CC2)no1 [Example 5F, (S)-7-(4-(2-((5-methyl-1,2,4-oxadiazol-3-yl)methoxy)phenyl)piperidin-1-yl)-2-(1,3,4-thiadiazol-2-yl)-5-oxa-2-azaspiro[3.4]octane]"
0%,> 25 µM,0.657 µM,35%,"Fc1ccc(OC2COC2)c(C2CCN([C@@H]3COC4(C3)CN(c3nncs3)C4)CC2)c1 [Example 5G, (S)-7-(4-(5-fluoro-2-(oxetan-3-yloxy)phenyl)piperidin-1-yl)-2-(1,3,4-thiadiazol-2-yl)-5-oxa-2-azaspiro[3.4]octane]"
0%,> 25 µM,0.443 µM,40%,"Fc1ccc(O[C@@H]2CCOC2)c(C2CCN([C@@H]3COC4(C3)CN(c3nncs3)C4)CC2)c1 [Example 5H, (S)-7-(4-(5-fluoro-2-(((R)-tetrahydrofuran-3-yl)oxy)phenyl)piperidin-1-yl)-2-(1,3,4-thiadiazol-2-yl)-5-oxa-2-azaspiro[3.4]octane]"
0%,> 25 µM,0.545 µM,43%,"Fc1ccc(OC[C@@H]2CCOC2)c(C2CCN([C@@H]3COC4(C3)CN(c3nncs3)C4)CC2)c1 [Example 5I, (S)-7-(4-(5-fluoro-2-(((R)-tetrahydrofuran-3-yl)methoxy)phenyl)piperidin-1-yl)-2-(1,3,4-thiadiazol-2-yl)-5-oxa-2-azaspiro[3.4]octane]"
0%,> 25 µM,4.75 µM,46%,"Fc1ccc(OC2CCOCC2)c(C2CCN([C@@H]3COC4(C3)CN(c3nncs3)C4)CC2)c1 [Example 5J, (S)-7-(4-(5-fluoro-2-((tetrahydro-2H-pyran-4-yl)oxy)phenyl)piperidin-1-yl)-2-(1,3,4-thiadiazol-2-yl)-5-oxa-2-azaspiro[3.4]octane]"
0%,6.64 µM,0.453 µM,32%,"Fc1ccc(OC[C@H]2COCCO2)c(C2CCN([C@@H]3COC4(C3)CN(c3nncs3)C4)CC2)c1 [Example 5K, (S)-7-(4-(2-(((R)-1,4-dioxan-2-yl)methoxy)-5-fluorophenyl)piperidin-1-yl)-2-(1,3,4-thiadiazol-2-yl)-5-oxa-2-azaspiro[3.4]octane]"
0%,> 25 µM,0.456 µM,32%,"Fc1ccc(OC[C@@H]2COCCO2)c(C2CCN([C@@H]3COC4(C3)CN(c3nncs3)C4)CC2)c1 [Example 5L, (S)-7-(4-(2-(((S)-1,4-dioxan-2-yl)methoxy)-5-fluorophenyl)piperidin-1-yl)-2-(1,3,4-thiadiazol-2-yl)-5-oxa-2-azaspiro[3.4]octane]"
0%,> 25 µM,0.415 µM,34%,"Fc1cc(O[C@@H]2CCOC2)c(C2CCN([C@@H]3COC4(C3)CN(c3nncs3)C4)CC2)cc1F [Example 5M, (S)-7-(4-(4,5-difluoro-2-(((R)-tetrahydrofuran-3-yl)oxy)phenyl)piperidin-1-yl)-2-(1,3,4-thiadiazol-2-yl)-5-oxa-2-azaspiro[3.4]octane]"
0%,> 25 µM,1.17 µM,33%,"Fc1ccc(O[C@H]2CCOC2)c(C2CCN([C@@H]3COC4(C3)CN(c3nncs3)C4)CC2)c1 [Example 5O, (S)-7-(4-(5-fluoro-2-(((S)-tetrahydrofuran-3-yl)oxy)phenyl)piperidin-1-yl)-2-(1,3,4-thiadiazol-2-yl)-5-oxa-2-azaspiro[3.4]octane]"
0%,> 25 µM,9.7 µM,25%,"CC(C)(O)CCOc1ccc(F)cc1C1CCN([C@@H]2COC3(C2)CN(c2nncs2)C3)CC1 [Example 5P, (S)-4-(2-(1-(2-(1,3,4-thiadiazol-2-yl)-5-oxa-2-azaspiro[3.4]octan-7-yl)piperidin-4-yl)-4-fluorophenoxy)-2-methylbutan-2-ol]"
0%,> 25 µM,> 25 µM,0%,"c1ccc(C2CCN([C@@H]3COC4(C3)CN(c3nncs3)C4)CC2)c(OC2COC2)c1 [Example 5Q, (S)-7-(4-(2-(oxetan-3-yloxy)phenyl)piperidin-1-yl)-2-(1,3,4-thiadiazol-2-yl)-5-oxa-2-azaspiro[3.4]octane formate salt]"
